The test system of data set [1] is cellular uptake of 1 in HeLa Kyoto cells. Nature of the data set: cells. Type of data set: cell-based. Particulars: HeLa; for minimal effective concentration / IC50: HeLa Kyoto, removal, tinc 0.5 h with 1 (10 µM); for minimal effective concentration: read-out: MIC, inhibition of cellular uptake of 1; for IC50: read-out: IC50, inhibition of cellular uptake of 1; for MIC (concentration that causes ∼15% reduction of reporter uptake), against reporter 1: pre-incubation time not given (Fig. 2: 1 h pre-incubation, 30 min with reporter; some 15 min). On the procedure:
(§1) With COCs 1 and 2 as cell-penetrating reporters, a fully automated, fluorescent microscopy image-based high-content high-throughput (HCHT)[19] inhibitor screening assay was developed. HeLa cells in multiwell plates are incubated with a reporter at constant and inhibitors at varying concentrations and incubation times. Hindered reporter uptake then causes decrease of fluorescence inside of cells (Fig. 3a). Automated data analysis[19] was established to extract average fluorescence intensity per cell and, at the same time, cell viability from propidium iodide negative nuclei count (Fig. 3 and S3–S6 ^†). Standard assay conditions consisted of pre-incubation of HeLa cells with inhibitors for different periods of time, followed by the removal of inhibitors and the addition of reporters, thus excluding possible interactions between the two in the extracellular environment. In alternative co-incubation conditions, inhibitors were not removed before the addition of reporters to allow for eventual interactions between the two.
4. High-Content High-Throughput (HCHT) Inhibitor Screening
4.1. General Procedure for HCHT Inhibitor Screening
4.1.1. Pre-Incubation of Inhibitors
HeLa Kyoto cells were seeded at 1.2 ×10^4 cells/well in FluoroBrite DMEM + 10% FBS on μ-Plate 96-well Black ibiTreat sterile and kept at 37 °C with 5% CO2 overnight. Next day, serial dilutions of the inhibitors in PBS (10x final concentration), reporter 1 or 2 (100 μM in PBS) and a solution of Hoechst 33342 (100 μg/mL) and PI (10 μg/mL) in PBS were prepared freshly in a 96-well V-bottom plate. Then, cells were washed with PBS ([…]) and the media was exchanged to FluoroBrite DMEM (4 x 150 μL/well) using a plate washer (Biotek EL406®), keeping always a final volume of 135 μL/well. The inhibitor solutions from the V-bottom plate were added to the cells (15 μL/well, 10x final concentration in PBS) using an electronic multichannel pipettes to reach a final volume of 150 μL/well. Cells were incubated for the time of interest (for details of each inhibitors, see Section 4.3 and 4.4) at 37 °C with 5%
CO2. After this, cells were washed again using the plate washer and reporter solution 1 or 2 from the V-bottom plate was added (15 μL/well) using an electronic multichannel pipettes to reach a final volume of 150 μL/well and a final concentration of 10 μM, except for the control wells, where only PBS was added (15 μL/well). After 30 min of incubation at 37 °C with 5% CO2, the plate was washed again using the plate washer. Then, the solution of Hoechst 33342 and PI from V-bottom plate was added (15 μL/well) using an electronic multichannel pipettes to reach a final volume of 150 μL/well. After 15 min of incubation at 37 °C with 5% CO2, the plate was washed one last time and the cells were kept in clean FluoroBrite DMEM. During imaging, samples were kept at 37 °C with 5% CO2 in the microscope.
4.1.2. Co-Incubation of Inhibitors and Reporters […]
serial dilutions of the inhibitors in PBS (10x final concentration), reporter 1 or 2 (110 μM in […]
freshly in a 96-well V-bottom plate. Then, cells were washed with the plate washer. The inhibitor solutions from the V-bottom plate were added to the cells (15 μL/well, 10x final concentration in PBS) using an electronic multichannel pipettes to reach a final volume of 150 μL/well. Cells were incubated for the time of interest (for details of each inhibitors, see Section 4.3 and 4.4) at 37 °C with 5% CO2. Reporter solution 1 or 2 from V-bottom plate was then added (15 μL/well) using an electronic multichannel pipettes to reach a final volume of 165 μL/well and a final concentration of 10 μM 30 min before the next washing process, except for the control wells, where only PBS was added (15 μL/well). The plate was washed again using the plate washer. The solution of Hoechst 33342 and PI from V-bottom plate was added (15 μL/well) using an electronic multichannel pipettes to reach a final volume of 150 μL/well. After […]

A short description of data set [2]: Relative cell viability in HCHT screening (propidium iodide negative nuclei count). It is filed as cell-based. Conditions: human; for GI50: HeLa, removal, tinc 0.5 h with 1 (10 µM), read-out: GI50, concentration causing 50% cell growth inhibition. On the procedure: as §1
To be able to extract the fluorescent integrated intensity information (sum of the intensities of all the pixels included in the mask) from the green channel for live cell only, the image analysis pipeline contains several steps of cell filtering and selection:
1) Firstly, PI is used to stain any remaining nuclei of dead cell. In the analysis pipeline, all the “dead” nuclei are detected based on their fluorescent intensity in the PI channel (Figure […]
Fig. S4 (A) PI positive nuclei mask (fluorescent intensity threshold of 1000). (B) Overlap image of dead nuclei mask and original all cell body mask. (C) Resulting cell mask after removing any cell marked by a dead nucleus, new mask is called “Live Cell”. Scale bar: 50 μm.
2) Elimination of non-full cells from the border of the image is performed, to avoid inaccurate fluorescent integrated intensity quantification (fluorescent integrated intensity = sum of intensity of all the pixel of the object) (Figure S5).
(1 picture or pasted object on this page, not shown here)
4.3. HCHT Inhibitor Screening with ETP as Reporter […]
Relative cell viability (RV) for each condition in the presence of inhibitors were calculated using the count value of living cells by dividing the count value of living cells with addition of reporter 1, Hoechst 33342 and PI, for each set of experiments. Duplicates were performed for each condition. The resulting dependence of the relative cell viability (RVrel) to the concentration of inhibitors (cinhibitor) was plotted and fitted with Equation (S2) to retrieve the concentration causing 50% cell growth inhibition (GI50) value and the Hill coefficient (n).
RVrel = 1 / (1 + (GI50 / cinhibitor)n) (S2)
Note: Reporter 1 were not toxic for 1 h at 10 μM.S2 Also in this study, the count value of living cells with addition of reporter 1, Hoechst 33342 and PI is always similar to that of living cells with only addition of Hoechst 33342 and PI.
Relative cell viability (RV) for each condition with inhibitors were calculated using the count value of living cells by dividing the count value of living cells with addition of reporter 2, Hoechst 33342 and PI, for each set of experiments. Duplicates were performed for each condition. The resulting dependence of the relative cell viability (RVrel) to the concentration of inhibitors (cinhibitor) was plotted and fitted with Equation (S2) to retrieve the concentration causing 50% cell growth inhibition (GI50) value and the Hill coefficient (n).
Note: Reporter 2 were not toxic for 24 h at 10 μM.S3 Also in this study, the count value of living cells with addition of reporter 2, Hoechst 33342 and PI is always similar to that of living cells with only addition of Hoechst 33342 and PI.
4.4.1. Screening with Disulfides as Inhibitors
4.4.1.1. Screening with ETP as Inhibitors
Fig. S35 Automatically analyzed HCHT data showing fluorescence intensity (filled symbols) and relative viability (empty symbols) of HeLa cells after pre-incubation with 3 for 1 h (blue […]

Where [3] appears, read: 0.5 h, tpre 0.5 h with inhibitor.
The mark [4] stands for this setting: GI50, concentration causing 50% cell growth inhibition.
Where [5] appears, read: 0.25 h, tpre 0.25 h with inhibitor.

Read-outs that look alike come from different tables or passages of the source.

`O[C@@H]1CSSC[C@@H]1O` [compound 29]: the minimal effective concentration is above 2000 µM in data set [1] (1 h, tpre 1 h with inhibitor); above 2000 µM in data set [1] (2 h, tpre 2 h with inhibitor); above 2000 µM in data set [1] (4 h, tpre 4 h with inhibitor). Moreover, the IC50 in data set [1] (tpre 1 h with inhibitor), in data set [1] (tpre 2 h with inhibitor) and in data set [1] (tpre 4 h with inhibitor) was above 2000 µM each time. Also, the GI50 in data set [2] (tpre 1 h with inhibitor), in data set [2] (tpre 2 h with inhibitor) and in data set [2] (tpre 4 h with inhibitor) was above 2000 µM in each case.

As to `CCN1C(=O)C2SSC1C(=O)N2CC(=O)NCC[N+](C)(C)C` (stereo not shown) [compound 12], the IC50 in data set [1] (setting [3]), in data set [1] (tpre 1 h with inhibitor) and in data set [1] (tpre 2 h with inhibitor) was above 100 µM throughout. In addition, the minimal effective concentration stood at 30 µM in data set [1] (setting [3]); 30 µM in data set [1] (1 h, tpre 1 h with inhibitor); 30 µM in data set [1] (2 h, tpre 2 h with inhibitor). The “MIC (concentration that causes ∼15% reduction of reporter uptake), against reporter 1” value in data set [1] was “≈ 30 μM”. The GI50 in data set [2] (tpre 0.5 h with inhibitor), in data set [2] (tpre 1 h with inhibitor) and in data set [2] (tpre 2 h with inhibitor) was above 100 µM each time.

As to `O=C(O)CCCCC1CCSS1` (stereo not shown) [compound 30], the minimal effective concentration was above 2000 µM in data set [1] (1 h, tpre 1 h with inhibitor); above 2000 µM in data set [1] (2 h, tpre 2 h with inhibitor); above 2000 µM in data set [1] (4 h, tpre 4 h with inhibitor). In addition, the IC50 in data set [1] (tpre 1 h with inhibitor), in data set [1] (tpre 2 h with inhibitor) and in data set [1] (tpre 4 h with inhibitor) was above 2000 µM each time. Further, the GI50 at 1 h in data set [2] (setting [4]) is above 2000 µM. The compound further yielded a GI50 at 2 h in data set [2] (setting [4]) above 2000 µM. For the same compound, in data set [2] (setting [4]), the GI50 at 4 h is above 2000 µM.

Consider `CS(=O)(=O)c1nc2ccccc2s1` [compound 21], for which the minimal effective concentration was 300 µM in data set [1] (setting [5]); 100 µM in data set [1] (setting [3]); 300 µM in data set [1] (1 h, tpre 1 h with inhibitor). The IC50 in data set [1] (setting [3]), in data set [1] (tpre 0.25 h with inhibitor) and in data set [1] (tpre 1 h with inhibitor) was above 500 µM in each case. In addition, in data set [1], the “MIC (concentration that causes ∼15% reduction of reporter uptake), against reporter 1” value was “≈ 300 μM”. Also, the GI50 in data set [2] (tpre 0.25 h with inhibitor), in data set [2] (tpre 0.5 h with inhibitor) and in data set [2] (tpre 1 h with inhibitor) was above 500 µM each time.

Consider `COCCOCCOCCNC(=O)c1ccc2c(c1)SSSSS2` [compound 10], for which the results for the IC50 in data set [1] (setting [3]), in data set [1] (tpre 1 h with inhibitor) and in data set [1] (tpre 2 h with inhibitor) were 10.4 ± 0.3 µM, 10.1 ± 0.1 µM and above 5 µM, respectively. The minimal effective concentration in data set [1] (setting [3]) is 6.5 µM; in data set [1] (1 h, tpre 1 h with inhibitor) it was 7 µM; in data set [1] (2 h, tpre 2 h with inhibitor) it was 3.5 µM. Further, the GI50 was around 18 µM in data set [2] (tpre 0.5 h with inhibitor), around 10 µM in data set [2] (tpre 1 h with inhibitor) and around 7 µM in data set [2] (tpre 2 h with inhibitor).

For the compound `O=C(O)c1cc(SSc2ccc([N+](=O)[O-])c(C(=O)O)c2)ccc1[N+](=O)[O-]` [compound 20, 5,5’-Dithiobis(2-nitrobenzoic acid), reference compound], the “Inhibition of uptake of reporter 1, in words” value in data set [1] is given as “minor inhibition up to around 2 mM, which disappeared again at higher concentrations”. Besides, the minimal effective concentration in data set [1] (setting [3]) amounted to 200 µM. Moreover, in data set [1] (1 h, tpre 1 h with inhibitor), the minimal effective concentration is 500 µM. In data set [2] (setting [4]), this compound registered a GI50 at 0.5 h above 10000 µM and a GI50 at 1 h above 10000 µM.

Consider `CS(=O)(=O)c1nnc(-c2ccccc2)o1` [compound 14], for which the minimal effective concentration in data set [1] (setting [5]) was found to be 40 µM; in data set [1] (setting [3]), 20 µM. Besides, the IC50 (commonly the point on the concentration scale where inhibition reaches its midpoint) in data set [1] (setting [3]) was 204 ± 63 µM; in data set [1] (tpre 0.25 h with inhibitor), 137 ± 28 µM. The results for the GI50 in data set [2] (tpre 0.25 h with inhibitor) and in data set [2] (tpre 0.5 h with inhibitor) were above 500 µM and 410 ± 99 µM, respectively.

Values taken from article PMC8179002, “Inhibitors of thiol-mediated uptake” (Chemical Science, 2020).
